This note sets out measurements from patent publication US4130645A (priority 1978, dated 1978).

Several values for one entry are separate records, joined by “and”; a condition that tells them apart may be missing. Equal entries are not always repeated. Structures can show the parent of a compound that is named as a salt.

One data set deals with Erysiphe graminis f. sp. hordei. The experiment in a line: whole plant or invertebrate. Type of data set: in vivo. As to conditions: Blumeria graminis, in Hordeum vulgare, foliar, read-out: Barley Powdery Mildew Percent Disease Control.
Take `CC(C)N(c1c(Br)cccc1Br)[N+](=O)[O-]`: the pest or weed control at 500 ppm turned out to be 100%.
For the compound `CC(C)OC(=O)Nc1cc(Cl)c(N[N+](=O)[O-])c(Cl)c1`, the pest or weed control at 200 ppm came out at 97%.
Regarding `O=[N+]([O-])Nc1cccc(C(F)(F)F)c1`, the pest or weed control at 500 ppm was 96%.
On the same count and under the same terms, to `N#Cc1ccc(N[N+](=O)[O-])c(Br)c1` belongs 100%.
On the same count and under the same terms, next, `CS(=O)(=O)c1ccc(N[N+](=O)[O-])cc1` [drawing 93]: 100%.
For the compound `O=[N+]([O-])Nc1c(Cl)c(Cl)cc(Cl)c1Cl` [drawing 87], the pest or weed control at 50 ppm worked out at 48% and the pest or weed control at 500 ppm amounted to 84%.
As for `CCN(c1c(Br)cccc1Br)[N+](=O)[O-]`, the pest or weed control at 500 ppm is 89%.
The same measure, in the same setting: to `O=[N+]([O-])Nc1cc(Cl)c(Cl)c(Cl)c1Cl` belongs 84%.
The same measure, in the same setting: next, `CCc1cccc(CC)c1N[N+](=O)[O-]`: 100%; `Cc1cc([N+](=O)[O-])cc(C)c1N[N+](=O)[O-]` [drawing 101]: 100%.
Same read-out and setting: next, `O=[N+]([O-])Nc1cccc(Cl)c1Cl` [drawing 89]: 100%; `O=[N+]([O-])Nc1cccc(Br)c1` [drawing 99]: 96%; `O=[N+]([O-])Nc1ccc(Cl)cc1Cl` [drawing 90]: 100%.
`O=[N+]([O-])Nc1ccc(C(F)(F)F)cc1` [drawing 84]: the pest or weed control at 50 ppm was 84%, the pest or weed control at 100 ppm stood at 95%, the pest or weed control at 200 ppm turned out to be 91% and the pest or weed control at 500 ppm was 96%.
On to `O=[N+]([O-])Nc1c(Br)cc(C(F)(F)F)cc1Br` [drawing 102], for which the pest or weed control at 200 ppm was 83% and the pest or weed control at 500 ppm was determined as 100%.
As to `O=[N+]([O-])Nc1c(Cl)cccc1Cl` [drawing 91], the pest or weed control at 500 ppm came out at 100%.
On the same count and under the same terms, next, `CN(c1c(Cl)c(Cl)cc(Cl)c1Cl)[N+](=O)[O-]`: 100%; `CN(c1c(Br)cccc1Br)[N+](=O)[O-]`: 89%; `CC(=O)Nc1cc(Cl)c(N[N+](=O)[O-])c(Cl)c1` [drawing 107]: 84%.
Still for that read-out and setting: next, `O=[N+]([O-])N(Cc1ccccc1)c1c(Br)cccc1Br`: 100%.
On the same count and under the same terms, to `COC(=O)CN(c1c(Cl)c(Cl)cc(Cl)c1Cl)[N+](=O)[O-]` [drawing 122] belongs 84%.
`CC(=O)N(c1c(Cl)c(Cl)cc(Cl)c1Cl)[N+](=O)[O-]` [drawing 121]: the pest or weed control at 50 ppm is 95%, the pest or weed control at 100 ppm came to 95%, the pest or weed control at 200 ppm came out at 95% and the pest or weed control at 500 ppm was 100%.
Take `CCC(=O)Nc1cc(Cl)c(N[N+](=O)[O-])c(Cl)c1` [drawing 108]: the pest or weed control at 500 ppm came out at 100%.

The data set is the same for the next values; noted with them: in vivo.
Consider `CCC(=O)Nc1cc(Cl)c(N[N+](=O)[O-])c(Cl)c1` [drawing 112], for which the “Barley Powdery Mildew Percent Disease Control” value came to 89%.
As for `O=[N+]([O-])Nc1c(Cl)c(Cl)cc(Cl)c1Cl` [drawing 100], the “Barley Powdery Mildew Percent Disease Control” value was 100% and 95%.
Same read-out and setting: next, `O=[N+]([O-])Nc1c(Cl)c(Cl)cc(Cl)c1Cl` [drawing 87]: 71%; `O=[N+]([O-])Nc1c(Cl)c(Cl)cc(Cl)c1Cl` [drawing 123]: 98% and 96%; `O=[N+]([O-])Nc1c(Cl)c(Cl)cc(Cl)c1Cl` [drawing 118]: 100%.

A further data set has as its system Venturia inaequalis (Cke.) Wint. In words: whole plant or invertebrate. Format: in vivo. As to conditions: Venturia inaequalis, foliar, read-out: Apple Scab Percent Disease Control.
On to `CS(=O)(=O)c1ccc(N[N+](=O)[O-])cc1` [drawing 66], for which the pest or weed control at 500 ppm came out at 76%.
Same read-out and setting: to `O=[N+]([O-])Nc1c(Br)cc(C(F)(F)F)cc1Br` [drawing 67] belongs 76%; to `O=[N+]([O-])Nc1ccccc1Cl`, 93%; to `CC(=O)Nc1cc(Cl)c(N[N+](=O)[O-])c(Cl)c1` [drawing 68], 76%.
Take `O=[N+]([O-])Nc1cccc(Cl)c1Cl` [drawing 64]: the pest or weed control at 200 ppm stood at 67% and the pest or weed control at 500 ppm amounted to 76%.
In the case of `O=[N+]([O-])Nc1c(Cl)c(Cl)cc(Cl)c1Cl` [drawing 69], the pest or weed control at 500 ppm was determined as 76%.
Consider `COC(=O)CN(c1c(Cl)c(Cl)cc(Cl)c1Cl)[N+](=O)[O-]` [drawing 73], for which the pest or weed control at 200 ppm is 83% and the pest or weed control at 500 ppm came to 96%.

The same data set, now with this note: in vivo.
Regarding `COC(=O)CN(c1c(Cl)c(Cl)cc(Cl)c1Cl)[N+](=O)[O-]` [--CH2 COOCH3], the “activity against apple scab” value is recorded as “active”.
On the same count and under the same terms, next, `CC(C)N(c1c(Cl)c(Cl)cc(Cl)c1Cl)[N+](=O)[O-]` [--(CH(CH3)2]: “active”; `CS(=O)(=O)c1ccc(N[N+](=O)[O-])cc1` [4-methylsulfonylphenylnitramine]: “active”.
As to `O=[N+]([O-])Nc1c(Cl)c(Cl)cc(Cl)c1Cl` [2,3,5,6-tetrachlorophenylnitramine N-barium salt], the “activity against apple scab” value is given as “active”.
The same measure, in the same setting: next, `O=[N+]([O-])Nc1ccc(Cl)cc1Cl` [2,4-dichlorophenylnitramine]: “active”; `CC(=O)Nc1cc(Cl)c(N[N+](=O)[O-])c(Cl)c1` [2,6-dichloro-4-acetamidophenylnitramine]: “active”.

Test system in a further data set: not listed separately
The experiment in a line: Thermal decomposition point (Differential Thermal Analyzer). Format: physicochemical. As to conditions: 20° C./min, onset method. As to the method:
By the procedure of Examples 2 and 5 the following novel salts of 2,3,5,6-tetrachloro-N-nitroaniline are prepared as listed in Table II below. The melting points (uncorrected) of said salts are determined on a Thomas Hoover Capillary Melting Point Apparatus; while the thermal decomposition points of said salts are determined on a Dupont 900 Differential Thermal Analyzer. […] Decompositions are recorded by an exothermic response and the temperatures given in Table II below are assessed by the "onset method".
In the case of `O=[N+]([O-])Nc1c(Cl)c(Cl)cc(Cl)c1Cl` [NH2 (CH2C6 H5)2, dibenzylamine salt of 2,3,5,6-tetrachloro-N-nitroaniline], the “Thermal Decomposition Point” value was found to be 183 °C.
Take `O=[N+]([O-])Nc1c(Cl)c(Cl)cc(Cl)c1Cl` [NH3 (CH2)3 NHC12 H25 -n]: the “Thermal Decomposition Point” value worked out at 184 °C.
The same measure, in the same setting: to `O=[N+]([O-])Nc1c(Cl)c(Cl)cc(Cl)c1Cl` [NH2 (C3 H7)2] belongs 204 °C; to `O=[N+]([O-])Nc1c(Cl)c(Cl)cc(Cl)c1Cl` [drawing 24], 138 °C; to `O=[N+]([O-])Nc1c(Cl)c(Cl)cc(Cl)c1Cl` [NH3 (CH2)8 CHCH(CH2)7 CH3], 157 °C.
On the same count and under the same terms, next, `O=[N+]([O-])Nc1c(Cl)c(Cl)cc(Cl)c1Cl` [NH3 C16 H33]: 148.5 °C; `O=[N+]([O-])Nc1c(Cl)c(Cl)cc(Cl)c1Cl` [NH3 C8 H17]: 163 °C.
The same measure, in the same setting: to `O=[N+]([O-])Nc1c(Cl)c(Cl)cc(Cl)c1Cl` [NH4] belongs 178 °C.
Regarding `O=[N+]([O-])Nc1c(Cl)c(Cl)cc(Cl)c1Cl` [drawing 23], the “Thermal Decomposition Point” value was found to be 163 °C.
On the same count and under the same terms, next, `O=[N+]([O-])Nc1c(Cl)c(Cl)cc(Cl)c1Cl` [NH2 (CH2 CH2 OH)2]: 173 °C and 177 °C; `O=[N+]([O-])Nc1c(Cl)c(Cl)cc(Cl)c1Cl` [drawing 22]: 143 °C; `O=[N+]([O-])Nc1c(Cl)c(Cl)cc(Cl)c1Cl` [NH(CH2 CH2 OH)3]: 150 °C.
The same measure, in the same setting: to `O=[N+]([O-])Nc1c(Cl)c(Cl)cc(Cl)c1Cl` [NH3 CH2 CH2 NH2] belongs 208 °C; to `O=[N+]([O-])Nc1c(Cl)c(Cl)cc(Cl)c1Cl` [NH2 (C4 H9)2], 207 °C; to `O=[N+]([O-])Nc1c(Cl)c(Cl)cc(Cl)c1Cl` [K], 272 °C.
On the same count and under the same terms, next, `O=[N+]([O-])Nc1c(Cl)c(Cl)cc(Cl)c1Cl` [NH(C2 H5)3]: 169 °C; `O=[N+]([O-])Nc1c(Cl)c(Cl)cc(Cl)c1Cl` [NHC18 H37 . (CH2 CH2 O)2 H . (CH2 CH2 O)3 H]: 153-157 °C; `O=[N+]([O-])Nc1c(Cl)c(Cl)cc(Cl)c1Cl` [NH2 (C18 H37)2]: 168 °C.
Consider `O=[N+]([O-])Nc1c(Cl)c(Cl)cc(Cl)c1Cl` [drawing 21], for which the “Thermal Decomposition Point” value is 176 °C.
On the same count and under the same terms, next, `O=[N+]([O-])Nc1c(Cl)c(Cl)cc(Cl)c1Cl` [NH3 CH2 CH2 OH, ethanolamine salt of 2,3,5,6-tetrachloro-N-nitroaniline]: 203 °C; `O=[N+]([O-])Nc1c(Cl)c(Cl)cc(Cl)c1Cl` [NH(CH3)2 . C6 H5, N,N-dimethylaniline salt of 2,3,5,6-tetrachloro-N-nitroaniline]: 128 °C.
Same read-out and setting: next, `O=[N+]([O-])Nc1c(Cl)c(Cl)cc(Cl)c1Cl` [NH(C3 H7)3]: 154 °C; `O=[N+]([O-])Nc1c(Cl)c(Cl)cc(Cl)c1Cl` [NH3 CH3]: 183 °C.
The same measure, in the same setting: next, `O=[N+]([O-])Nc1c(Cl)c(Cl)cc(Cl)c1Cl` [NH3 C12 H25 -n]: 166 °C.
Consider `O=[N+]([O-])Nc1c(Cl)c(Cl)cc(Cl)c1Cl` [drawing 25], for which the “Thermal Decomposition Point” value came to 173 °C.
On to `O=[N+]([O-])Nc1c(Cl)c(Cl)cc(Cl)c1Cl` [drawing 26], for which the “Thermal Decomposition Point” value turned out to be 203 °C.

A further data set relates to Podosphaera leucotricha (E&E) Salm. The experiment in a line: whole plant or invertebrate. Format: in vivo. The following applies: Podosphaera leucotricha, foliar, read-out: Apple Powdery Mildew Percent Disease Control.
As for `CC(=O)N(c1c(Cl)c(Cl)cc(Cl)c1Cl)[N+](=O)[O-]` [drawing 83], the pest or weed control at 500 ppm worked out at 92%.
On the same count and under the same terms, to `Cc1cc([N+](=O)[O-])cc(C)c1N[N+](=O)[O-]` [drawing 78] belongs 84%.

The data set is the same for the next values; noted with them: in vivo.
Regarding `O=[N+]([O-])Nc1c(Cl)cccc1Cl` [2,6-dichloro-], the “activity against apple powdery mildew” value was “active”.
Still for that read-out and setting: to `O=[N+]([O-])Nc1cccc(Br)c1` [3-bromophenylnitramine] belongs “active”.
